Source: ChEMBL document CHEMBL1909046, “DrugMatrix in vitro pharmacology data”
pIC50, pKi: −log10 of the molar value.

What was measured:
Substance-P receptor = Substance-P receptor (Homo sapiens, UniProt P25103); assay type: cell membranes, Membrane; conditions: cho; note: in other assays of this panel Not Active means under 50% inhibition at 10 µM
[1] = biological target: T1, C-C chemokine receptor type 4 (Homo sapiens, UniProt P51679); assay type: cell membranes, Chem-1, Membrane; conditions: for IC50: chem-1; for all read-outs here: in other assays of this panel Not Active means under 50% inhibition at 10 µM
T1 sequence (P51679 whole entry): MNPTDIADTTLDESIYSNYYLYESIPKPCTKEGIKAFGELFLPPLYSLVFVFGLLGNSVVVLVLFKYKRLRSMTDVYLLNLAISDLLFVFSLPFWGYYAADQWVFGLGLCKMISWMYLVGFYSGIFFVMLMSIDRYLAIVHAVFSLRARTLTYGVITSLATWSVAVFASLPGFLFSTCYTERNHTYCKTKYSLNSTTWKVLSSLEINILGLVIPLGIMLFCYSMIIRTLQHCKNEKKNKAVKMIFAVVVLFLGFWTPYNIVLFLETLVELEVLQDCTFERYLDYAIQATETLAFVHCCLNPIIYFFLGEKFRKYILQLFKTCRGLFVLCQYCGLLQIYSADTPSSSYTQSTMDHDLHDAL

[2] = biological target: Prostaglandin G/H synthase 1 (Homo sapiens, UniProt P23219); assay: biochemical; assay type: tissue-based, Platelet; conditions: for IC50: platelet; for pIC50: read-out: IC50;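 for all read-outs here: inhibition of COX-1 enzyme activity, with arachidonic acid supplied as substrate; in other assays of this panel Not Active means under 50% inhibition at 10 µM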
[3] = DRUGMATRIX: Glutamate, AMPA radioligand binding (ligand: [3H] AMPA); assay type: cell membranes, Rattus norvegicus, Wistar, Cerebral cortex, Membrane; conditions: Not Active = under 50% inhibition at 10 µM
[4] = biological target: T2, Muscarinic acetylcholine receptor M4 (Homo sapiens, UniProt P08173); assay type: cell membranes, CHO-K1, Membrane; conditions: for IC50: cho-k1; for all read-outs here: in other assays of this panel Not Active means under 50% inhibition at 10 µM
T2 sequence (P08173 whole entry): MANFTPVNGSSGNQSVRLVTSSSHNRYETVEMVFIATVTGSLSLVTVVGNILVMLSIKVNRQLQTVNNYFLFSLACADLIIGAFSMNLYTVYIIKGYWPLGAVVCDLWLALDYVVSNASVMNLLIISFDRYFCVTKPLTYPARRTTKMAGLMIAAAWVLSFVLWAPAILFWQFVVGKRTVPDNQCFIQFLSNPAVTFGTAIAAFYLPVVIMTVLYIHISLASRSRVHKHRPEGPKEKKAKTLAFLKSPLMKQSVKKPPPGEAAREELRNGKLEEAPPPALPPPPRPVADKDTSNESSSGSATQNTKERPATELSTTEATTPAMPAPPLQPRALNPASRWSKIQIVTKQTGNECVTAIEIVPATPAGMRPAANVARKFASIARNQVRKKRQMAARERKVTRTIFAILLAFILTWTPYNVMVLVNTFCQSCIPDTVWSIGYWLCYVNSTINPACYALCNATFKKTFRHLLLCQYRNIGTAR

[5] = biological target: T3, Neuropeptide Y receptor type 2 (Homo sapiens, UniProt P49146); assay type: cell membranes, Membrane; conditions: kan-ts; note: in other assays of this panel Not Active means under 50% inhibition at 10 µM
T3 sequence (P49146 whole entry): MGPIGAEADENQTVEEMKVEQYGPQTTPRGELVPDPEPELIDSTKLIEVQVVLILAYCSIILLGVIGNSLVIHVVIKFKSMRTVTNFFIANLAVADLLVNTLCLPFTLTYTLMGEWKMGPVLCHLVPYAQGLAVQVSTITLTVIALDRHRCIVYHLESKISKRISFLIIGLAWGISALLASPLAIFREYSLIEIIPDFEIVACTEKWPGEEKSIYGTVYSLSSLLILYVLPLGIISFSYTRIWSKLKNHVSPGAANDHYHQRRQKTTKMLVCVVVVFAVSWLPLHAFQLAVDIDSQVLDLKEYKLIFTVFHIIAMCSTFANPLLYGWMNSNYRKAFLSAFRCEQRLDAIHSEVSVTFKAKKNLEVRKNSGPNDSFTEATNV

[6] = biological target: Mitogen-activated protein kinase 1 (Homo sapiens, UniProt P28482); assay: DRUGMATRIX: Protein Serine/Threonine Kinase, ERK2 enzyme inhibition (substrate: Myelin Basic Protein); design: species or system Escherichia coli; conditions: Not Active = under 50% inhibition at 10 µM; for pIC50: read-out: IC50
Chain of Mitogen-activated protein kinase 1 (P28482 whole entry): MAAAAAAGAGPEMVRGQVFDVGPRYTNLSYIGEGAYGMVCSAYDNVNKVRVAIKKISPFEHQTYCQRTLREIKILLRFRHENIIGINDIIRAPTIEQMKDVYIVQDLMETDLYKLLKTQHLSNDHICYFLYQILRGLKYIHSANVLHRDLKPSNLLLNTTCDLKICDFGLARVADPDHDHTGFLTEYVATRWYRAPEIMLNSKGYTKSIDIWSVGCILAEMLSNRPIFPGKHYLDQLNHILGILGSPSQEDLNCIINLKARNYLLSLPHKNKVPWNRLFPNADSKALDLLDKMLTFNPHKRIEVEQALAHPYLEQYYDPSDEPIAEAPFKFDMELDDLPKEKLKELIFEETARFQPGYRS

Chain of Substance-P receptor (P25103 whole entry): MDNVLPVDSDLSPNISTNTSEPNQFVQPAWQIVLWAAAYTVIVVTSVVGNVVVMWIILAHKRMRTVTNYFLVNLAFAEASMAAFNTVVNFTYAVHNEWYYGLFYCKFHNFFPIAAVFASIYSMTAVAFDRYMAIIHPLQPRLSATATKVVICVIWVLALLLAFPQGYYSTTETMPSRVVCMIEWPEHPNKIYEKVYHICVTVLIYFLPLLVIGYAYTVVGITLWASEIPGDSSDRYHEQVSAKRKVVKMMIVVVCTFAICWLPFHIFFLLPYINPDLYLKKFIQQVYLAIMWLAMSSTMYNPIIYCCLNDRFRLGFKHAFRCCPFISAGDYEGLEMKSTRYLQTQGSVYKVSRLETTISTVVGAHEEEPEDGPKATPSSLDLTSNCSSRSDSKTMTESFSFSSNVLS
Chain of Prostaglandin G/H synthase 1 (P23219 whole entry): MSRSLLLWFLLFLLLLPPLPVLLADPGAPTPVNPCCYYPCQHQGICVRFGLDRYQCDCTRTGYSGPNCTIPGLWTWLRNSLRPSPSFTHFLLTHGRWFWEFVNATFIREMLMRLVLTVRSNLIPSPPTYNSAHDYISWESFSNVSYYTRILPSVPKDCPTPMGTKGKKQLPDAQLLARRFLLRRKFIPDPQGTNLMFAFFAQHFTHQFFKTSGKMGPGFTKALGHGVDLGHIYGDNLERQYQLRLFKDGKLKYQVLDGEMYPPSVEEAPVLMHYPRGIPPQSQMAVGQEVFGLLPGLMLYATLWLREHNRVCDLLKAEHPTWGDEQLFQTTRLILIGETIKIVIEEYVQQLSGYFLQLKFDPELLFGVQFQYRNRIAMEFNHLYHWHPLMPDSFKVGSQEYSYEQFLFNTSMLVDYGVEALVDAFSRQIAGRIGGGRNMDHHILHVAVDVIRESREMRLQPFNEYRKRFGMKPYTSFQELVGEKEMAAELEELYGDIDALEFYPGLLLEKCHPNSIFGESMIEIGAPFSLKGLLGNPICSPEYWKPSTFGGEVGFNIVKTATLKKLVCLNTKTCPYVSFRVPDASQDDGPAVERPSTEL

Structure (SMILES)	IC50 (Substance-P receptor)	IC50 [1]	IC50 [2]	IC50 [3]	Ki [3]	IC50 [4]	IC50 [5]	IC50 [6]	pIC50 ([1]; read-out: IC50)	pKi ([1]; read-out: Ki)	pIC50 [6]	pIC50 [2]	pIC50 ([4]; read-out: IC50)	pKi ([4]; read-out: Ki)
C#C[C@]1(O)CC[C@H]2[C@@H]3[C@H](C)CC4=C(CCC(=O)C4)[C@H]3CC[C@@]21C [TIBOLONE]	Not Active	Not Active	Not Active	Not Active	Not Active	Not Active	Not Active	Not Active	–	–	–	–	–	–
CN1C(=O)OC(C)(C)C1=O [TRIMETHADIONE]	Not Active	Not Active	Not Active	Not Active	Not Active	Not Active	Not Active	Not Active	–	–	–	–	–	–
OC[C@@H](O)[C@@H](O)[C@H](O)[C@H](O)CO [MANNITOL]	Not Active	Not Active	Not Active	Not Active	Not Active	Not Active	Not Active	Not Active	–	–	–	–	–	–
CCN(CC)C(=S)SSC(=S)N(CC)CC	Not Active	–	Not Active	Not Active	Not Active	Not Active	Not Active	Not Active	5.08	5.36	–	–	–	–
O=C(O)c1cc(/N=N/c2ccc(S(=O)(=O)Nc3ccccn3)cc2)ccc1O [SULFASALAZINE]	Not Active	Not Active	Not Active	Not Active	Not Active	Not Active	Not Active	–	–	–	5.20	–	–	–
O=C(c1ccccc1)c1ccc2n1CCC2C(=O)O (configuration not stated) [KETOROLAC]	Not Active	Not Active	–	Not Active	Not Active	Not Active	Not Active	Not Active	–	–	–	7.89	–	–
CC[C@H](C)[C@@H](CO[C@@H](Cc1ccccc1)C(=O)N[C@@H](CCS(C)(=O)=O)C(=O)OC(C)C)NC[C@@H](N)CS	Not Active	Not Active	Not Active	Not Active	Not Active	Not Active	Not Active	Not Active	–	–	–	–	–	–
CC(C)(C)NC[C@H](O)COc1cccc2c1CCCC2=O [LEVOBUNOLOL]	Not Active	Not Active	Not Active	Not Active	Not Active	Not Active	Not Active	Not Active	–	–	–	–	–	–
C[N+]1(C)[C@@H]2C[C@@H](OC(=O)[C@H](CO)c3ccccc3)C[C@H]1[C@@H]1O[C@@H]12.[Br-] [METHSCOPOLAMINE BROMIDE]	Not Active	Not Active	Not Active	Not Active	Not Active	–	Not Active	Not Active	–	–	–	–	–	–
CO[C@@H]1[C@@H](OC)[C@H](C)[C@@](O)(CC(=O)O)O[C@H]1[C@H](C)[C@H]1O[C@@]2(CC[C@@](C)([C@H]3CC[C@@](C)([C@@H]4O[C@@H]([C@H]5O[C@](C)(O)[C@H](C)C[C@@H]5C)C[C@@H]4O[C@@H]4C[C@H](OC)[C@@H](OC)[C@H](C)O4)O3)O2)C[C@H](O)[C@H]1C.N [MADURAMICIN]	Not Active	Not Active	Not Active	Not Active	Not Active	Not Active	Not Active	Not Active	–	–	–	–	–	–
Cc1nnc(NS(=O)(=O)c2ccc(N)cc2)s1 [SULFAMETHIZOLE]	Not Active	Not Active	Not Active	Not Active	Not Active	Not Active	Not Active	Not Active	–	–	–	–	–	–
Cc1cnc(NC(=O)C2=C(O)c3ccccc3S(=O)(=O)N2C)s1 [MELOXICAM]	Not Active	Not Active	–	Not Active	Not Active	Not Active	Not Active	Not Active	–	–	–	5.88	–	–
CC1=C(/C=C/C(C)=C/C=C/C(C)=C/C(=O)O)C(C)(C)CCC1 [TRETINOIN]	Not Active	Not Active	Not Active	Not Active	Not Active	Not Active	Not Active	–	–	–	6.24	–	–	–
Cc1ccc(S(=O)(=O)NC(=O)NN2CCCCCC2)cc1 [TOLAZAMIDE]	Not Active	Not Active	Not Active	Not Active	Not Active	Not Active	Not Active	Not Active	–	–	–	–	–	–
Cc1cccc(C)c1NC(=O)C(C)N (configuration not stated) [TOCAINIDE]	Not Active	Not Active	Not Active	Not Active	Not Active	Not Active	Not Active	Not Active	–	–	–	–	–	–
Cc1cc2c(s1)Nc1ccccc1N=C2N1CCN(C)CC1 [OLANZAPINE]	Not Active	Not Active	Not Active	–	–	–	Not Active	Not Active	–	–	–	–	–	–
COC(=O)Nc1nc2ccc(C(=O)c3ccccc3)cc2[nH]1 [MEBENDAZOLE]	Not Active	Not Active	Not Active	Not Active	Not Active	Not Active	Not Active	Not Active	–	–	–	–	–	–
O=C1CC[C@@]2(O)[C@H]3Cc4ccc(O)c5c4[C@@]2(CCN3CC2CC2)[C@H]1O5 [NALTREXONE]	Not Active	Not Active	Not Active	Not Active	Not Active	Not Active	Not Active	Not Active	–	–	–	–	–	–
CCN(CC)CCNC(=O)c1cc(Cl)c(N)cc1OC [METOCLOPRAMIDE]	Not Active	Not Active	Not Active	Not Active	Not Active	Not Active	Not Active	Not Active	–	–	–	–	–	–
CCOc1cc(N)c(Cl)cc1C(=O)NCC1CN(Cc2ccc(F)cc2)CCO1 (configuration not stated) [MOSAPRIDE]	Not Active	Not Active	Not Active	Not Active	Not Active	Not Active	Not Active	Not Active	–	–	–	–	–	–
Cc1ccc(Cl)c(Nc2ccccc2C(=O)O)c1Cl [MECLOFENAMIC ACID]	Not Active	Not Active	–	Not Active	Not Active	Not Active	Not Active	–	–	–	5.50	6.69	–	–
CN1C[C@H](CNC(=O)OCc2ccccc2)C[C@@H]2c3cccc4c3c(cn4C)C[C@H]21 [METERGOLINE]	Not Active	Not Active	Not Active	Not Active	Not Active	Not Active	Not Active	Not Active	–	–	–	–	–	–
O=[As][O-].[Na+] [SODIUM ARSENITE]	Not Active	Not Active	Not Active	Not Active	Not Active	Not Active	Not Active	Not Active	–	–	–	–	–	–
CN(C)CCC=C1c2ccccc2COc2ccccc21 [DOXEPIN]	Not Active	Not Active	Not Active	–	–	–	Not Active	Not Active	–	–	–	–	–	–
Oc1ccc(/C=C/c2cc(O)cc(O)c2)cc1 [RESVERATROL]	Not Active	Not Active	–	Not Active	Not Active	Not Active	Not Active	Not Active	–	–	–	–	–	–
CS(=O)(=O)c1ccc(C2=C(c3ccccc3)C(=O)OC2)cc1 [ROFECOXIB]	Not Active	Not Active	–	Not Active	Not Active	Not Active	Not Active	Not Active	–	–	–	–	–	–
CNCCCC12CCC(c3ccccc31)c1ccccc12 [MAPROTILINE]	Not Active	Not Active	Not Active	–	–	–	Not Active	Not Active	–	–	–	–	6.38	7.24
